Test results as given in patent US9289425B2, “Intranasal naloxone compositions and methods of making and using same” (priority 2013, dated 2016).
Structures can show the parent of a compound that is named as a salt. Where two headings read alike, the source gives them in different places.

What was measured:
[1] = Physicochemical properties of naloxone stated in the description; conditions: pH of about 5.5 to 6.5
Text: Specifically, naloxone is known to have a pKa of about 8. For nasal formulations, wherein transmucosal delivery is desired, it is generally considered advantageous, if not necessary, to ensure that an active agent is primarily in an un-ionized state, as unionized species pass through membranes more easily than ionized species. […] The nasal mucosal is at a pH of about 5.5 to 6.5, a pH at which Applicant has found naloxone is unstable.
Naloxone prevents or reverses the effects of opioids including respiratory depression, sedation and hypotension. Also, it can reverse the psychotomimetic and dysphoric effects of agonist-antagonists such as pentazocine. […] In the presence of physical dependence on opioids, naloxone will produce withdrawal symptoms. However, in the presence of opioid dependence, withdrawal symptoms will appear within minutes of naloxone administration and will subside in about 2 hours. The severity and duration of the withdrawal syndrome are related to the dose and route of administration of naloxone and to the degree and type of dependence.

[2] = cited from earlier work

SMILES: C=CCN1CC[C@]23c4c5ccc(O)c4O[C@H]2C(=O)CC[C@@]3(O)[C@H]1C5 [naloxone, 17-allyl-4,5α-epoxy, 3-14-dihydroxymorphinan-6-one hydrochloride]
- stability versus pH [1]: unstable
- pKa [2]: about 8
- solubility ([2]; in alcohol): slightly soluble
- solubility ([2]; in ether and in chloroform): practically insoluble
- solubility ([2]; in water, in dilute acids, and in strong alkali): soluble
